Measured values reported in patent US20050032187A1, “Novel peptide-forming enzyme, microbe producing the enzyme and method for producing peptide using them” (Ajinomoto Co., Inc., priority 2003, published 2005).
Residues, ends and D or L forms follow the SMILES beside them.

test system: Empedobacter brevis strain FERM BP-8113 microbial cells; assay: Production of peptide using microbial cells of Empedobacter brevis; assay type: cell-based; settings: 1 mL of 100 g/L cell suspension + 1 mL buffer with 200 mM carboxy component (HCl salt) and 400 mM amino acid, 10 mM EDTA, pH 9.0, 18° C., 2 hours
Method: Although the following provides a more detailed explanation of the present invention through its examples, the present invention is not limited to these examples. In addition to confirmation by ninhydrin coloring of thin-film chromatograms (qualitative), quantitative determinations were made by the following high-performance liquid chromatography in order to assay products. Column: […] ODS-2 (manufactured by GL Science, Inc.), eluate: aqueous phosphate solution containing 5.0 mM sodium 1-octanesulfonate (pH 2.1): methanol=100: 15 to 50, flow rate: 1.0 mL/min, detection: 210 nanometers (hereinafter, “nm”). A 50 mL medium (pH 6.2) containing 5 grams (hereinafter, “g”) of glucose, 5 g of ammonium sulfate, 1 g of monopotassium phosphate, 3 g of dipotassium phosphate, 0.5 g of magnesium sulfate, 10 g of yeast extract and 10 g of peptone in 1 liter (hereinafter, “L”) was transferred to a 500 mL Sakaguchi flask and sterilized at 115° C. for 15 minutes. This medium was then inoculated with one loopful of the culture broth of Empedobacter brevis strain FERM BP-8113 (Depositary institution: National Institute for Advanced Industrial Science and Technology, International Patent Organism Depositary, Address of depositary institution: Chuo Dai-6,1-1 Higashi 1-Chome, Tsukuba-shi, Ibaraki-ken, Japan, International deposit transfer date: Jul. 8, 2002) that had been cultured at 30° C. for 16 hours in the same medium, followed by shake culturing at 30° C. for 16 hours and 120 strokes/min.

| Molecule | Formed peptide |
| --- | --- |
| NCC(=O)N[C@@H](Cc1cnc[nH]1)C(=O)O [Gly-L-His] (H-Gly-His-OH) | 22.1 mM |
| C[C@H](N)C(=O)N[C@@H](CCCN=C(N)N)C(=O)O [L-Ala-L-Arg] (H-Ala-Arg-OH) | 72.1 mM |
| C[C@H](N)C(=O)N[C@@H](CCC(N)=O)C(=O)O [L-Ala-L-Gln, L-alanyl-L-glutamine] (H-Ala-Gln-OH) | 68.0 mM |
| C[C@H](N)C(=O)N[C@@H](Cc1cnc[nH]1)C(=O)O [L-Ala-L-His] (H-Ala-His-OH) | 52.1 mM |
| CC(C)C[C@H](NC(=O)[C@H](C)N)C(=O)O [L-Ala-L-Leu] (H-Ala-Leu-OH) | 38.2 mM |
| CSCC[C@H](NC(=O)[C@H](C)N)C(=O)O [L-Ala-L-Met] (H-Ala-Met-OH) | 68.3 mM |
| C[C@H](N)C(=O)N[C@@H](Cc1ccccc1)C(=O)O [L-Ala-L-Phe] | 62.4 mM |
| C[C@H](N)C(=O)N[C@@H](CO)C(=O)O [L-Ala-L-Ser] (H-Ala-Ser-OH) | 51.3 mM |
| CC[C@H](C)[C@H](N)C(=O)N[C@@H](CCSC)C(=O)O [L-Ile-L-Met] (H-Ile-Met-OH) | 8.3 mM |
| CSCC[C@H](N)C(=O)N[C@@H](Cc1ccccc1)C(=O)O [L-Met-L-Phe] (H-Met-Phe-OH) | 28.5 mM |
| N[C@@H](CO)C(=O)N[C@@H](CO)C(=O)O [L-Ser-L-Ser] (H-Ser-Ser-OH) | 29.0 mM |
| CC(C)C[C@H](NC(=O)[C@@H](N)[C@@H](C)O)C(=O)O [L-Thr-L-Leu] (H-Thr-Leu-OH) | 23.0 mM |
| CSCC[C@H](NC(=O)[C@@H](N)C(C)C)C(=O)O [L-Val-L-Met] (H-Val-Met-OH) | 10.5 mM |

test system: Sphingobacterium sp. strain FERM BP-8124 microbial cells; assay: Production of L-alanyl-L-glutamine using microbial cells of Sphingobacterium sp.; assay type: cell-based; settings: 0.1 mL of 100 g/L cell suspension + 0.1 mL buffer with 200 mM L-alanyl methyl ester hydrochloride and 400 mM L-glutamine, pH 9.0, 25° C., 120 minutes
Method: A 50 ml medium (pH 7.0) containing 5 g of glucose, 5 g of ammonium sulfate, 1 g of monopotassium phosphate, 3 g of dipotassium phosphate, 0.5 g of magnesium sulfate, 10 g of yeast extract and 10 g of peptone in 1 L was transferred to a 500 mL Sakaguchi flask and sterilized at 115° C. for 15 minutes for culturing Sphingobacterium sp. strain FERM BP-8124 (Depositary institution: National Institute for Advanced Industrial Science and Technology, International Patent Organism Depositary, Address of depositary institution: Chuo Dai-6,1-1 Higashi 1-Chome, Tsukuba-shi, Ibaraki-ken, Japan, International deposit date: Jul. 22, 2002). This medium was then inoculated with one loopful of Sphingobacterium sp. strain FERM BP-8124 (Depositary institution: National Institute for Advanced Industrial Science and Technology, International Patent Organism Depositary, Address of depositary institution: Chuo Dai-6,1-1 Higashi 1-Chome, Tsukuba-shi, Ibaraki-ken, Japan, International deposit date: Jul. 22, 2002) cultured at 30° C. for 24 hours in a slant agar medium (agar: 20 g/L, pH 7.0) containing 5 g of glucose, 10 g of yeast extract, 10 g of peptone and 5 g of NaCl in 1 L, followed by shake culturing at 30° C. for 20 hours and 120 strokes/minute. A 1 ml aliquot of this culture broth was then added to the aforementioned medium (50 ml/500 mL Sakaguchi flask) and cultured at 30° C. for 18 hours. […]

| Molecule | amount of L-alanyl-L-glutamine produced |
| --- | --- |
| C[C@H](N)C(=O)N[C@@H](CCC(N)=O)C(=O)O [L-Ala-L-Gln, L-alanyl-L-glutamine] (H-Ala-Gln-OH) | 62 mM |

test system: enzyme (SP-Sepharose HP fraction) derived from Sphingobacterium sp. strain FERM BP-8124; assay: not given; assay type: biochemical; settings: Table 15-2; carboxy 100 mM, L-Gln 150 mM, 0.33 units, pH 9.0, 25° C., 1.5 hours; 0.1% Tween-80 with L-Tyr-OMe
Method: The following procedure after centrifugal separation was carried out either on ice or at 4° C. Sphingobacterium sp. strain FERM BP-8124 (Depositary institution: National Institute for Advanced Industrial Science and Technology, International Patent Organism Depositary, Address of depositary institution: Chuo Dai-6,1-1 Higashi 1-Chome, Tsukuba-shi, Ibaraki-ken, Japan, International deposit date: Jul. 22, 2002) was cultured in the same manner as Example 21, and the microbial cells were collected by centrifugal separation (10,000 rpm, 15 minutes). After washing 2 g of microbial cells with 20 mM Tris-HCl buffer (pH 7.6), they were suspended in 8 ml of the same buffer and subjected to ultrasonic crushing treatment for 45 minutes at 195 W. This ultrasonic crushing liquid was then centrifuged (10,000 rpm, 30 minutes) to remove the crushed cell fragments and obtain an ultrasonic crushing liquid supernatant. This ultrasonic crushing liquid supernatant was dialyzed overnight against 20 mM Tris-HCl buffer (pH 7.6) followed by removal of the insoluble fraction by ultracentrifugation (50,000 rpm, 30 minutes) to obtain a soluble fraction in the form of the supernatant liquid. The resulting soluble fraction was applied to a Q-Sepharose HP column (manufactured by Amersham) pre-equilibrated with Tris-HCl buffer (pH 7.6), and the active fraction was collected from the non-adsorbed fraction. This active fraction was dialyzed overnight against 20 mM acetate buffer (pH 5.0) followed by removal of the insoluble fraction by centrifugal separation (10,000 rpm, 30 minutes) to obtain a dialyzed fraction in the form of the supernatant liquid. This dialyzed fraction was then applied to an SP-Sepharose HP column (manufactured by Amersham) pre-equilibrated with 20 mM acetate buffer (pH 5.0) to obtain the active fraction in which enzyme was eluted at a linear concentration gradient of the same buffer containing 0 tol M NaCl.
Substrate specificity was examined for enzyme derived from Sphingobacterium sp. strain FERM BP-8124 (Depositary institution: National Institute for Advanced Industrial Science and Technology, International Patent Organism Depositary, Address of depositary institution: Central. 6, 1-1-1 Higashi, Tsukuba City, Ibaraki Prefecture, Japan, International deposit date: Jul. 22, 2002). 100 μl of 100 mM borate buffer (pH 9.0) containing the various carboxy components at a final concentration of 100 mM and the various amine components at a final concentration of 150 mM shown in Tables 15-1 to 15-4, the SP-Sepharose HP fraction enzyme purified in Example 22 (addition of 0.33 units in the reaction liquid) and 10 mM EDTA were allowed to react at 25° C. for 1.5 hours.
In addition, hydrochlorides were used for all carboxy components. […]

| Produced peptide | Molecule |
| --- | --- |
| 61.1 mM | NCC(=O)N[C@@H](CCC(N)=O)C(=O)O [Gly-L-Gln] (H-Gly-Gln-OH) |
| 17.2 mM | NC(=O)CC[C@H](NC(=O)[C@@H](N)CCCN=C(N)N)C(=O)O [L-Arg-L-Gln] (H-Arg-Gln-OH) |
| 0.1 mM | NC(=O)CC[C@H](NC(=O)[C@@H](N)CCC(N)=O)C(=O)O [L-Gln-L-Gln] (H-Gln-Gln-OH) |
| 6.4 mM | CC[C@H](C)[C@H](N)C(=O)N[C@@H](CCC(N)=O)C(=O)O [L-Ile-L-Gln] (H-Ile-Gln-OH) |
| 32.6 mM | CSCC[C@H](N)C(=O)N[C@@H](CCC(N)=O)C(=O)O [L-Met-L-Gln] (H-Met-Gln-OH) |
| 0.8 mM | NC(=O)CC[C@H](NC(=O)[C@@H](N)Cc1ccccc1)C(=O)O [L-Phe-L-Gln] |
| 1.8 mM | NC(=O)CC[C@H](NC(=O)[C@@H]1CCCN1)C(=O)O [L-Pro-L-Gln] (H-Pro-Gln-OH) |
| 12.9 mM | NC(=O)CC[C@H](NC(=O)[C@@H](N)CO)C(=O)O [L-Ser-L-Gln] (H-Ser-Gln-OH) |
| 36.1 mM | C[C@@H](O)[C@H](N)C(=O)N[C@@H](CCC(N)=O)C(=O)O [L-Thr-L-Gln] (H-Thr-Gln-OH) |
| 0.6 mM | NC(=O)CC[C@H](NC(=O)[C@@H](N)Cc1ccc(O)cc1)C(=O)O [L-Tyr-L-Gln] (H-Tyr-Gln-OH) |
| 8.2 mM | CC(C)[C@H](N)C(=O)N[C@@H](CCC(N)=O)C(=O)O [L-Val-L-Gln] (H-Val-Gln-OH) |
| 0.05 mM | NC(=O)CC[C@H](NC(=O)[C@@H](N)CC(=O)O)C(=O)O [α-L-Asp-L-Gln] (H-Asp-Gln-OH) |

test system: not listed separately; assay: Comparison of ability to catalyze peptide production with known enzymes; settings: 100 mM L-alanine methyl ester, 200 mM L-glutamine, pH 9.0, 25° C.; amount of enzyme added as in Table 14

| L-Ala-L-Gln production rate (mM/mm) | Molecule |
| --- | --- |
| 0.0062 mM/mm | Bromelain |
| 0.0100 mM/mm | Chymopapain: thiol endopeptidase described in EP 359399B1, purified enzyme manufactured by Sigma |
| 0.0096 mM/mm | Ficin |
| 0.0106 mM/mm | Papain: thiol endopeptidase described in EP 359399B1, purified enzyme manufactured by Sigma (protein, UniProt P00784 134-345, looked up) Papain: IPEYVDWRQKGAVTPVKNQGSCGSCWAFSAVVTIEGIIKIRTGNLNEYSEQELLDCDRRSYGCNGGYPWSALQLVAQYGIHYRNTYPYEGVQRYCRSREKGPYAAKTDGVRQVQPYNEGALLYSIANQPVSVVLEAAGKDFQLYRGGIFVGPCGNKVDHAVAAVGYGPNYILIKNSWGTGWGENGYIRIKRGTGNSYGVCGLYTSSFYPVKN |
| 0.0257 mM/mm | Carboxypeptidase Y: known enzyme described in EP 278787A1, purified enzyme manufactured by Sigma (protein, UniProt P00729 112-532, looked up) Carboxypeptidase Y: KIKDPKILGIDPNVTQYTGYLDVEDEDKHFFFWTFESRNDPAKDPVILWLNGGPGCSSLTGLFFELGPSSIGPDLKPIGNPYSWNSNATVIFLDQPVNVGFSYSGSSGVSNTVAAGKDVYNFLELFFDQFPEYVNKGQDFHIAGESYAGHYIPVFASEILSHKDRNFNLTSVLIGNGLTDPLTQYNYYEPMACGEGGEPSVLPSEECSAMEDSLERCLGLIESCYDSQSVWSCVPATIYCNNAQLAPYQRTGRNVYDIRKDCEGGNLCYPTLQDIDDYLNQDYVKEAVGAEVDHYESCNFDINRNFLFAGDWMKPYHTAVTDLLNQDLPILVYAGDKDFICNWLGNKAWTDVLPWKYDEEFASQKVRNWTASITDEVAGEVKSYKHFTYLRVFNGGHMVPFDVPENALSMVNEWIHGGFSL |
